Reference: US9283256B2, “Antibacterial composition comprising Salvia extracts” (Botanic Century (Beijing) Co. Ltd., priority 2007, dated 2016)
Converted amounts (≈) assume the structure as drawn. Read-outs that look alike come from different tables or passages of the source.

Columns and labels:
Staphylococcus aureus = conditions: filter paper disc, chemicals isolated from Danshen; cited from earlier work
MRSA 2 = assay: MIC and MBC by microtitre well methods, PYN6 versus individual compounds (TEST 2); format: cell-based, Staphylococcus aureus; conditions: for MIC: microtitre well, growth over 20 hrs, 490 nm; for MBC: subculture onto solid media after 20 hrs
Description: (§1) Minimum Inhibitory and Minimum Bactericidal activities (MIC and MBC) of PYN6 were determined for 2 strains of MRSA using standard microtitre well methods. MICs were determined by measuring growth over 20 hrs using spectroscopy at 490 nm. MBCs were determined by subculture from these microtitre plates onto solid media after 20 hrs and determining survival of bacteria grown in the presence of PYN6.
TEST 2 MIC and MBC comparing PYN6 to A, B, C and D against MRSA 2

MRSA 98 = assay: MIC and MBC by microtitre well methods, PYN6 versus individual compounds (TEST 1); format: cell-based, Staphylococcus aureus
Description: as §1
TEST 1 MIC and MBC comparing PYN6 to A, B, C and D against MRSA 98

[1] = dissolved in chloroform; cited from earlier work
Escherichia coli = conditions: dissolved in dimethylformamide (DMF); cited from earlier work
[2] = tested on: Staphylococcus aureus ATCC225923; conditions: dissolved in dimethylformamide (DMF); cited from earlier work
Haemolytic streptococcus = conditions: dissolved in dimethylformamide (DMF); cited from earlier work
[3] = tested on: Bacillus aeruginosus ATCC227853; conditions: dissolved in dimethylformamide (DMF); cited from earlier work
[4] = tested on: clinical isolates of MRSA (T3, 102, MRSA 99); format: cell-based, Staphylococcus aureus; conditions: sub-inhibitory sub-culture, 3 week test period
Description: This experiment was conducted to test for the rapid development of resistance in Staphylococcus aureus in the presence of sub-inhibitory doses of the active extract.
All clinical strains were from The Royal London, St Bartholomew's or Newham hospitals in London. Each strain had been identified as an MRSA.
High concentrations of organisms (10^7cfu/ml^−1) were grown in sub-inhibitory concentrations 0, 2 and 8 mg l^−1 of the active extract.
Organisms were sub-cultured into fresh active extract media at day 4 and again at day 7. MICs were checked weekly using standard methods. Subcultures were carried out in triplicate.

[5] = TEST 1, MRSA 98, microtitre well, growth over 20 hrs, 490 nm
[6] = TEST 1, MRSA 98, subculture onto solid media after 20 hrs
[7] = Staphylococcus aureus, read-out: MIC
[8] = Staphylococcus aureus, read-out: MBC
[9] = Staphylococcus aureus, MRSA, 20 h

For `Cc1coc2c1C(=O)C(=O)c1c-2ccc2c(C)cccc12` [A, Tashinone 1], the anti-Staphylococcus aureus activity (Staphylococcus aureus) is listed as “did not show activity”, the MIC (MRSA 2) is listed as 125 mg/L (≈ 452 µM) and the MBC (MRSA 2) is listed as over 500 mg/L. The MIC (MRSA 98; [5]) was 125 mg/L (≈ 452 µM) and the MBC (MRSA 98; [6]) was under 500 mg/L.

In the case of `Cc1coc2c1C(=O)C(=O)c1c-2ccc2c1CCCC2(C)C` [B, Tashinone 11A], the anti-Staphylococcus aureus activity (Staphylococcus aureus) is listed as “did not show activity”, the anti-microbial activity [1] is listed as “did not demonstrate any anti-microbial activity” and the “minimum inhibitory concentration (MIC)” value (Escherichia coli) is listed as 50 µg/mL (≈ 170 µM). The MIC (MRSA 2; [7]) was 125 mg/L (≈ 425 µM), the MBC (MRSA 2; [8]) was over 500 mg/L and the MIC (MRSA 98; Staphylococcus aureus, TEST 1, MRSA 98, microtitre well, growth over 20 hrs, 490 nm, read-out: MIC) was 125 mg/L (≈ 425 µM). For the same molecule, the MBC (MRSA 98; Staphylococcus aureus, TEST 1, MRSA 98, subculture onto solid media after 20 hrs, read-out: MBC) was under 500 mg/L, the MIC [2] was 100 µg/mL (≈ 340 µM) and the MIC (Haemolytic streptococcus) was 121.5 µg/mL (≈ 413 µM). For the same molecule, the MIC [3] was 50 µg/mL (≈ 170 µM).

For `Cc1cccc2c3c(ccc12)C1=C(C(=O)C3=O)[C@@H](C)CO1` [C, Dyhydrotashinone], the anti-Staphylococcus aureus activity (Staphylococcus aureus) is given as “demonstrated anti-Staphylococcus aureus activity”, the MIC (MRSA 2) is given as 1.8 mg/L (≈ 6.47 µM) and the MBC (MRSA 2) is given as 62 mg/L (≈ 223 µM). The MIC (MRSA 98; [5]) was 8 mg/L (≈ 28.7 µM) and the MBC (MRSA 98; [6]) was 125 mg/L (≈ 449 µM).

`C[C@H]1COC2=C1C(=O)C(=O)c1c2ccc2c1CCCC2(C)C` [D, Cryptotashinone] showed an MIC (MRSA 2; [7]) of 7.7 mg/L (≈ 26 µM), an MBC (MRSA 2; [8]) of 125 mg/L (≈ 422 µM) and an MBC (MRSA 98; [9]) of 250 mg/L (≈ 844 µM). For the same molecule, the MIC (MRSA 98; [9]) was 15 mg/L (≈ 50.6 µM).

In the case of `Cc1coc2c1C(=O)C(=O)c1c-2ccc2c1CCCC2(C)CO` (stereo not drawn) [Tanshinone IIB], the anti-Staphylococcus aureus activity (Staphylococcus aureus) is given as “demonstrated anti-Staphylococcus aureus activity”, the “minimum inhibitory concentration (MIC)” value (Escherichia coli) is given as 25 µg/mL (≈ 80.6 µM) and the MIC [2] is given as 50 µg/mL (≈ 161 µM). For the same molecule, the MIC (Haemolytic streptococcus) was 25 µg/mL (≈ 80.6 µM) and the MIC [3] was 25 µg/mL (≈ 80.6 µM).

In the case of Gentamicin, the development of resistance [4] is reported as “no development of resistance”.

For neotanshinone A, the anti-Staphylococcus aureus activity (Staphylococcus aureus) is listed as “did not show activity”.

For neotanshinone B, the anti-Staphylococcus aureus activity (Staphylococcus aureus) is listed as “did not show activity”.

In the case of neotanshinone C, the anti-Staphylococcus aureus activity (Staphylococcus aureus) is listed as “did not show activity”.
